# How the values were obtained:
# [1] = test system: ABUTH (Velvetleaf); experiment: Postemergence herbicidal evaluation; assay type: in vivo, Abutilon theophrasti
# Outline: (§1)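 Seedlings grown about two weeks were sprayed at 40 psi with compound dispersed in 50/50 acetone/water plus 0.5% TWEEN 20, at about 0.0156 to 0.500 kg/ha. Plants were kept in the greenhouse and scored 4–5 weeks later on a 0–9 visual scale against untreated controls.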
# [2] = test system: CHEAL (Lambsquarters, Common); experiment: Postemergence herbicidal evaluation; assay type: in vivo, Chenopodium album
# Outline: as §1
# [3] = test system: IPOHE (Morningglory, Ivyleaf); experiment: Postemergence herbicidal evaluation; assay type: in vivo, Ipomoea hederacea
# Outline: as §1
# [4] = test system: ECHCG (Barnyardgrass); experiment: Postemergence herbicidal evaluation; assay type: in vivo, Echinochloa crus-galli
# Outline: as §1
# [5] = test system: SETVI (Foxtail, Green); experiment: Postemergence herbicidal evaluation; assay type: in vivo, Setaria viridis
# Outline: as §1
# [6] = test system: ORYSAT (Rice, Tebonnet); experiment: Postemergence herbicidal evaluation; assay type: in vivo, Oryza sativa, (L.) Tebonnet
# Outline: as §1
# [7] = test system: ZEAMX (Corn, Field); experiment: Postemergence herbicidal evaluation; assay type: in vivo, Zea mays
# Outline: as §1
# [8] = test system: ABUTH (Velvetleaf); experiment: Preemergence herbicidal evaluation; assay type: in vivo, Abutilon theophrasti; settings: rated 4-5 weeks after treatment
# Outline: (§2)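 Scores use a 0–9 visual scale covering stand, vigor, malformation, size and chlorosis relative to controls, rated four to five weeks after treatment. Before emergence, soil-planted seeds were sprayed with compound in aqueous acetone at roughly 0.0156–0.500 kg/ha and held in the greenhouse.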
# [9] = test system: CASOB (Sicklepod); experiment: Preemergence herbicidal evaluation; assay type: in vivo, Cassia obtusifolia; settings: rated 4-5 weeks after treatment
# Outline: as §2
# [10] = test system: CHEAL (Lambsquarters, Common); experiment: Preemergence herbicidal evaluation; assay type: in vivo, Chenopodium album; settings: rated 4-5 weeks after treatment
# Outline: as §2
# [11] = test system: IPOHE (Morningglory, Ivyleaf); experiment: Preemergence herbicidal evaluation; assay type: in vivo, Ipomoea hederacea; settings: rated 4-5 weeks after treatment
# Outline: as §2
# [12] = test system: ECHCG (Barnyardgrass); experiment: Preemergence herbicidal evaluation; assay type: in vivo, Echinochloa crus-galli; settings: rated 4-5 weeks after treatment
# Outline: as §2
# [13] = test system: GLXMAW (Soybean, Williams); experiment: Preemergence herbicidal evaluation; assay type: in vivo, Glycine max, (L.) Merr. cv Williams; settings: rated 4-5 weeks after treatment
# Outline: as §2
# [14] = test system: TRZAWR (Wheat, Winter, cv Riband); experiment: Preemergence herbicidal evaluation; assay type: in vivo, Triticum aestivum; settings: rated 4-5 weeks after treatment
# Outline: as §2
# [15] = test system: ZEAMX (Corn, Field); experiment: Preemergence herbicidal evaluation; assay type: in vivo, Zea mays; settings: rated 4-5 weeks after treatment
# Outline: as §2
# [16] = test system: CYPIR (Rice Flatsedge); experiment: Postemergence weed control under flooded paddy conditions; assay type: in vivo, Cyperus iria; settings: postemergence weeds, 3-4 weeks after treatment
# Outline: (§3)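 Injury ratings (0–9 scale covering stand, vigor, malformation, size, chlorosis and overall appearance versus control) were made three to four weeks after treatment. Test material, about 0.0313 to 0.500 kg/ha a.i. in 50/50 v/v aqueous/acetone, was added to flood water 1.5 to 3 cm deep over 3 to 5 cm weeds and 1.5 to 2.5 leaf rice.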
# [17] = test system: CYPSE (Flatsedge); experiment: as above; assay type: in vivo, Cyperus serotinus; settings: postemergence weeds, 3-4 weeks after treatment
# Outline: as §3
smiles,measurement,setting,value
"CCOC(=O)CN1C(=O)C(CC(=O)OCc2ccccc2)OC1=Nc1cc(-n2c(=O)cc(C(F)(F)F)n(C)c2=O)c(F)cc1Cl (stereo not shown) [Compound 40, 2-{{2-Chloro-5-[3,6-dihydro-3-methyl-2,6-dioxo-4-(trifluoromethyl)-1(2H)-pyrimidinyl]-4-fluorophenyl}imino}-4-oxo-3,5-oxazolidinediacetic acid, 5-benzyl ethyl ester]",Postemergence herbicidal rating ABUTH,[1]; Rate 0.0158 kg/ha,9.0
same,Postemergence herbicidal rating ABUTH,[1]; Rate 0.0315 kg/ha,9.0
same,Postemergence herbicidal rating ABUTH,[1]; Rate 0.0630 kg/ha,9.0
same,Postemergence herbicidal rating CHEAL,[2]; Rate 0.0158 kg/ha,2.0
same,Postemergence herbicidal rating CHEAL,[2]; Rate 0.0315 kg/ha,7.0
same,Postemergence herbicidal rating CHEAL,[2]; Rate 0.0630 kg/ha,9.0
same,Postemergence herbicidal rating IPOHE,[3]; Rate 0.0158 kg/ha,9.0
same,Postemergence herbicidal rating IPOHE,[3]; Rate 0.0315 kg/ha,9.0
same,Postemergence herbicidal rating IPOHE,[3]; Rate 0.0630 kg/ha,9.0
same,Postemergence herbicidal rating ECHCG,[4]; Rate 0.0158 kg/ha,1.0
same,Postemergence herbicidal rating ECHCG,[4]; Rate 0.0315 kg/ha,7.0
same,Postemergence herbicidal rating ECHCG,[4]; Rate 0.0630 kg/ha,9.0
same,Postemergence herbicidal rating SETVI,[5]; Rate 0.0158 kg/ha,1.0
same,Postemergence herbicidal rating SETVI,[5]; Rate 0.0315 kg/ha,7.0
same,Postemergence herbicidal rating SETVI,[5]; Rate 0.0630 kg/ha,9.0
same,Postemergence herbicidal rating ORYSAT,[6]; Rate 0.0158 kg/ha,2.5
same,Postemergence herbicidal rating ORYSAT,[6]; Rate 0.0315 kg/ha,3.0
same,Postemergence herbicidal rating ORYSAT,[6]; Rate 0.0630 kg/ha,3.0
same,Postemergence herbicidal rating ZEAMX,[7]; Rate 0.0158 kg/ha,7.0
same,Postemergence herbicidal rating ZEAMX,[7]; Rate 0.0315 kg/ha,7.5
same,Postemergence herbicidal rating ZEAMX,[7]; Rate 0.0630 kg/ha,8.5
same,Preemergence herbicidal rating ABUTH,[8]; rate 0.0313 kg/ha,0.0
same,Preemergence herbicidal rating ABUTH,[8]; rate 0.0625 kg/ha,6.0
same,Preemergence herbicidal rating ABUTH,[8]; rate 0.1250 kg/ha,9.0
same,Preemergence herbicidal rating ABUTH,[8]; rate 0.2500 kg/ha,9.0
same,Preemergence herbicidal rating CASOB,[9]; rate 0.0313 kg/ha,0.0
same,Preemergence herbicidal rating CASOB,[9]; rate 0.0625 kg/ha,0.0
same,Preemergence herbicidal rating CASOB,[9]; rate 0.1250 kg/ha,0.0
same,Preemergence herbicidal rating CASOB,[9]; rate 0.2500 kg/ha,1.0
same,Preemergence herbicidal rating CHEAL,[10]; rate 0.0313 kg/ha,9.0
same,Preemergence herbicidal rating CHEAL,[10]; rate 0.0625 kg/ha,9.0
same,Preemergence herbicidal rating CHEAL,[10]; rate 0.1250 kg/ha,9.0
same,Preemergence herbicidal rating CHEAL,[10]; rate 0.2500 kg/ha,9.0
same,Preemergence herbicidal rating IPOHE,[11]; rate 0.0313 kg/ha,0.0
same,Preemergence herbicidal rating IPOHE,[11]; rate 0.0625 kg/ha,0.0
same,Preemergence herbicidal rating IPOHE,[11]; rate 0.1250 kg/ha,9.0
same,Preemergence herbicidal rating IPOHE,[11]; rate 0.2500 kg/ha,9.0
same,Preemergence herbicidal rating ECHCG,[12]; rate 0.0313 kg/ha,0.0
same,Preemergence herbicidal rating ECHCG,[12]; rate 0.0625 kg/ha,0.0
same,Preemergence herbicidal rating ECHCG,[12]; rate 0.1250 kg/ha,1.0
same,Preemergence herbicidal rating ECHCG,[12]; rate 0.2500 kg/ha,1.0
same,Preemergence herbicidal rating GLXMAW,[13]; rate 0.0313 kg/ha,0.0
same,Preemergence herbicidal rating GLXMAW,[13]; rate 0.0625 kg/ha,0.0
same,Preemergence herbicidal rating GLXMAW,[13]; rate 0.1250 kg/ha,1.0
same,Preemergence herbicidal rating GLXMAW,[13]; rate 0.2500 kg/ha,3.0
same,Preemergence herbicidal rating TRZAWR,[14]; rate 0.0313 kg/ha,0.0
same,Preemergence herbicidal rating TRZAWR,[14]; rate 0.0625 kg/ha,0.0
same,Preemergence herbicidal rating TRZAWR,[14]; rate 0.1250 kg/ha,0.0
same,Preemergence herbicidal rating TRZAWR,[14]; rate 0.2500 kg/ha,1.0
same,Preemergence herbicidal rating ZEAMX,[15]; rate 0.0313 kg/ha,0.0
same,Preemergence herbicidal rating ZEAMX,[15]; rate 0.0625 kg/ha,0.0
same,Preemergence herbicidal rating ZEAMX,[15]; rate 0.1250 kg/ha,0.0
same,Preemergence herbicidal rating ZEAMX,[15]; rate 0.2500 kg/ha,1.0
same,Herbicidal rating CYPIR,[16]; rate 0.0313 kg/ha,0.0
same,Herbicidal rating CYPIR,[16]; rate 0.0625 kg/ha,0.0
same,Herbicidal rating CYPIR,[16]; rate 0.1250 kg/ha,0.0
same,Herbicidal rating CYPIR,[16]; rate 0.2500 kg/ha,0.0
same,Herbicidal rating CYPSE,[17]; rate 0.0313 kg/ha,0.0
same,Herbicidal rating CYPSE,[17]; rate 0.0625 kg/ha,0.0
same,Herbicidal rating CYPSE,[17]; rate 0.1250 kg/ha,0.0
same,Herbicidal rating CYPSE,[17]; rate 0.2500 kg/ha,6.0
